Experimental data: US4500712A, “Ergoline derivatives” (Farmitalia Carlo Erba S.p.A., priority 1981, dated 1985)

Assays:
gastric secretion = assay: Gastric antisecretory activity in pylorus-ligated rats (Shay et al.); assay type: in vivo, Sprague-Dawley male rats; details: 4 h; rat, intraduodenal, at the time of ligature; read-out: Antisecretory activity (ED50, mg/kg i.d.)
Procedure: According to this method the tested compounds were injected intraduodenally at the time of ligature. Six Sprague-Dawley male rats (110-130 g) were used for each group. Twenty-four hours before the test, the rats were deprived of food but the water supply was maintained. On the day of the operation, the pylorus was ligated under light ether anaesthesia. Four hours after the ligature, the rats were sacrificed. The stomach secretion was collected and centrifuged at 3500 r.p.m. for 10 minutes and the volume, less sediment, was determined. The amount of free hydrochloric acid in the gastric juice was determined by titration against 0.01N sodium hydroxide, to an end point of pH 7.

restraint ulcers = assay: Inhibition of restraint ulcers in rats (Bonfils et al.); assay type: in vivo, Sprague-Dawley male rats; details: 1 h; rat, oral, one hour before immobilization; read-out: Anticular activity (ED50, mg/kg p.o.)
Procedure: The anti-ulcerogenic activity of the compounds of the present invention is shown, e.g., by the fact that they are active in the test of the inhibition of restraint ulcers in rats, according to the method of Bonfils et al., (Therapie, 1960, 15, 1096). According to this method the tested compounds were administered per os one hour before the immobilization.
Six Sprague-Dawley male rats (100-120 g), fasted 24 hours, were used for the experiment: a square flexible small-mesh wire netting was used for the immobilization and 4 hours after the immobilization the rats were sacrificed, their stomachs were removed and the lesions counted under a dissecting microscope.

[1] = system: systolic blood pressure (S.B.P.) in SH-rats; assay: Systolic blood pressure in spontaneously hypertensive rats (indirect tail cuff method); assay type: in vivo, spontaneously hypertensive rats (SHR, Kyoto)
Procedure: (§1) Indirect measurements of systolic blood pressure were carried out on groups of 4 spontaneously hypertensive rats (SHR, Kyoto), 8-10 weeks of age, supplied by Charles Rives, Italy.
(§2) The animals were maintained in an environment of 36° C. for 10-15 minutes to allow pulse pressure to be recorded and then systolic blood pressure and heart rate were measured by indirect tail cuff method using a W+W, BP recorder, model 8005.
(§3) The compounds were given orally, suspended in 5% arabic gum, once a day for 4 consecutive days and measurements were carried out before beginning the treatment and 1 and 5 hours after dosing in both the first and fourth day of treatment.
(§4) Control animals received the vehicle only (0.2 ml/100 g b.w.). As reference standards, hydralazine (1-5 mg/kg p.o.) and α-methyl-dopa (30-100 mg/kg p.o.) were also tested.
(§5) Drug-induced changes in systolic blood pressure and heart rate were calculated as differences from the pretreatment values.

[2] = system: heart rate (HR) in SH-rats; assay: Heart rate in spontaneously hypertensive rats (indirect tail cuff method)
Procedure: as §1, §2, §3, §4, §5

[3] = system: syndrome induced by oxotremorine; details: general statement; cited from earlier work
[4] = 5 mg/kg p.o., 1st day, 1 h post drug
[5] = 5 mg/kg p.o., 1st day, 5 h post drug
[6] = 5 mg/kg p.o., 4th day, 1 h post drug
[7] = 5 mg/kg p.o., 4th day, 5 h post drug
[8] = 1 mg/kg p.o., 1st day, 1 h post drug
[9] = 1 mg/kg p.o., 1st day, 5 h post drug
[10] = 1 mg/kg p.o., 4th day, 1 h post drug
[11] = 1 mg/kg p.o., 4th day, 5 h post drug

## CN1C[C@@H](CNC(=S)NC(=O)c2ccccc2)C[C@H]2c3cccc4[nH]cc(c34)C[C@H]21 [Ex 1, 6-Methyl-8α-(3-benzoyl-thioureidomethyl)-10β-ergoline]
Gastric secretion
  ED50: 2.5 mg/kg
Restraint ulcers
  ED50: 4.2 mg/kg

## CN1C[C@H](CNC(=S)NC(=O)c2ccccc2)C[C@@H]2c3cccc4[nH]cc(c34)C[C@H]21 [Ex 2, 6-Methyl-8β-(3-benzoyl-thioureidomethyl)-ergoline]
Gastric secretion
  ED50: 1.4 mg/kg
Restraint ulcers
  ED50: 0.7 mg/kg

## CC(=O)NC(=O)NC[C@@H]1C[C@@H]2c3cccc4[nH]cc(c34)C[C@H]2N(C)C1 [Ex 9, 6-Methyl-8β-(3-acetyl-ureidomethyl)-ergoline]
[1]; [4]
  Changes in S.B.P: -25 ΔmmHg
[1]; [5]
  Changes in S.B.P: -17 ΔmmHg
[1]; [6]
  Changes in S.B.P: -57 ΔmmHg
[1]; [7]
  Changes in S.B.P: -56 ΔmmHg

## CN1C[C@@H](CNC(=O)NC(=O)c2ccccc2)C[C@@H]2c3cccc4[nH]cc(c34)C[C@H]21 [Ex 10, 6-Methyl-8α-(3-benzoyl-ureidomethyl)-ergoline]
Gastric secretion
  ED50: 1 mg/kg
Restraint ulcers
  ED50: 7 mg/kg

## CC(=O)NC(=O)NC[C@H]1C[C@@H]2c3cccc4[nH]cc(c34)C[C@H]2N(C)C1 [Ex 26, 6-Methyl-8α-(3-acetyl-ureidomethyl)-ergoline]
[1]; [4]
  Changes in S.B.P: -28 ΔmmHg
[1]; [5]
  Changes in S.B.P: -60 ΔmmHg
[1]; [6]
  Changes in S.B.P: -45 ΔmmHg
[1]; [7]
  Changes in S.B.P: -36 ΔmmHg

## NNc1nncc2ccccc12 [Hydralazine, hydralazine]
[2]; [8]
  Changes in HR: +30 beats/min
[2]; [9]
  Changes in HR: +35 beats/min
[2]; [10]
  Changes in HR: +25 beats/min
[2]; [11]
  Changes in HR: +15 beats/min
[2]; [4]
  Changes in HR: +40 beats/min
[2]; [5]
  Changes in HR: +45 beats/min
[2]; [6]
  Changes in HR: +18 beats/min
[2]; [7]
  Changes in HR: +15 beats/min
[2]; Table 3, SH-rats
  effects on heart rate (in words): increase HR
[1]; [8]
  Changes in S.B.P: -5 ΔmmHg
[1]; [9]
  Changes in S.B.P: -15 ΔmmHg
[1]; [10]
  Changes in S.B.P: -5 ΔmmHg
[1]; [11]
  Changes in S.B.P: 0 ΔmmHg
[1]; [4]
  Changes in S.B.P: -40 ΔmmHg
[1]; [5]
  Changes in S.B.P: -20 ΔmmHg
[1]; [6]
  Changes in S.B.P: -20 ΔmmHg
[1]; [7]
  Changes in S.B.P: -7 ΔmmHg

## CN1[C@@H]2CC[C@H]1C[C@@H](OC(=O)C(CO)c1ccccc1)C2 (some centres unmarked) [atropine]
[3]
  anti-cholinergic activity of known agent: remarkable but undesired anti-cholinergic activity

## C[C@](N)(Cc1ccc(O)c(O)c1)C(=O)O [α-methyl-DOPA, α-methyl-dopa]
[2]; rat, in vivo
  effects on heart rate (in words): increase HR
[1]; 30 mg/kg p.o., 1st day, 1 h post drug
  Changes in S.B.P: -10 ΔmmHg
[1]; 30 mg/kg p.o., 1st day, 5 h post drug
  Changes in S.B.P: -20 ΔmmHg
[1]; 30 mg/kg p.o., 4th day, 1 h post drug
  Changes in S.B.P: -10 ΔmmHg
[1]; 30 mg/kg p.o., 4th day, 5 h post drug
  Changes in S.B.P: 0 ΔmmHg
[1]; 100 mg/kg p.o., 1st day, 1 h post drug
  Changes in S.B.P: -10 ΔmmHg
[1]; 100 mg/kg p.o., 1st day, 5 h post drug
  Changes in S.B.P: -25 ΔmmHg
[1]; 100 mg/kg p.o., 4th day, 1 h post drug
  Changes in S.B.P: -20 ΔmmHg
[1]; 100 mg/kg p.o., 4th day, 5 h post drug
  Changes in S.B.P: -25 ΔmmHg
